According to patent publication US10259753B2, “Multifunctional organic agricultural fertilizer composition and process for preparation thereof” (priority 2014, dated 2019):

Columns and labels:
Pest worms = assay: Control of pest worms on tomato by Cypermethrin 25% EC in well water treated with the composition; type: in vivo; conditions: Cypermethrin 125 ml/acre with composition, control: 150 ml/acre in normal well water
Description: The following compositions are used in the treatment for Tomato:
(§1) Tomato crop infested with worms was sprayed with Cypermethrin 25% EC using normal well water and well water treated with the compositions of the invention. 4000 Sq. meter was treated only with water and another 8000 square meter plot was treated with composition of the invention as per Example No. 3 or 5. In both the plots, pest is controlled. In treated plot, the pest control is achieved at 95% and with 15% saving in the dosage of cypermethrin pesticide.

[1] = pH and color of cypermethrin spray water treated with the composition; type: physicochemical; conditions: composition 2 Ltr per 8000 sq. meter; control: normal well water
Description: as §1

weeds = assay: Control of weeds in cotton crop by glyphosate spray in water treated with the composition; type: in vivo; conditions: Glyfosate 750 ml/acre with composition, control: 1 Ltr/acre with plain water
Description: The cotton crop was treated with glyphosate at 1 Ltr per acre with plain water and Glyfosate used with the composition of Example 3 and 5 was used at 750 ml/acre.
(§2) The water was treated with composition of example 3 and 5 as given in Table 15 at 2 to 3 ml per ltr of water till the pH of 4.5 and 4.2 is achieved as indicated by the color achieved to the water.

[2] = pH and color of glyphosate spray water treated with the composition; type: physicochemical; conditions: water treated with composition at 2 to 3 ml per ltr; control: plain water
Description: as §2

[3] = Urea volatilization: loss of soil-applied urea, from nitrogen content of soil samples; conditions: 50 Kg urea in soil; 1 ltr of composition where used
Description: Experiment was carried out to check the effect of compositions of present invention to see the efficiency to prevent volatilization in urea.
It is noted that the pH of urea in soil in treatment T2 and T3 was adjusted to 4.5 to 5.0 due to addition of composition of invention.
The soil samples were collected from various selected locations wherever urea is applied and then checked for nitrogen content in laboratory after 0, 2, 4, 6, 8 and 10 days of urea application.

Question: Which results are given for `CC1(C)C(C=C(Cl)Cl)C1C(=O)OC(C#N)c1cccc(Oc2ccccc2)c1` (centres unmarked) [Cypermethrin]?
Answer: Control of Pest worms (Pest worms): 78%; pH of Cypermethrin Spray solution [1]: 7.20

Question: For `O=C(O)CNCP(=O)(O)O` [Glyfosate, glyphosate], which Control of weeds (weeds) is on record?
Answer: 72%

Question: And the “pH of Glyfosate spray solution” value [2]?
Answer: 7.65

Question: With `NC(N)=O` [Plain Urea, Urea] as the compound, how does the “pH achieved of urea in soil” value [3] read?
Answer: pH = 7.5
